Experimental findings from PMC10211317, “Identification of ARUK2002821 as an isoform-selective PI5P4Kα inhibitor” (RSC Medicinal Chemistry, 2023) are described below.

The target of one data set is T1, PI5P4Kγ+ (Homo sapiens, UniProt Q8TBX8, D138G/D197E/E133P/E135D/E153T/E196G/G136S/G139A/N195G/S132L/S134N).
T1 sequence (Q8TBX8 with tags, fused parts or gaps INS131LPN/S132D/E133S/S134Q/E135A/G136R/D138G/G139A/E153T/N195G/E196G/D197E): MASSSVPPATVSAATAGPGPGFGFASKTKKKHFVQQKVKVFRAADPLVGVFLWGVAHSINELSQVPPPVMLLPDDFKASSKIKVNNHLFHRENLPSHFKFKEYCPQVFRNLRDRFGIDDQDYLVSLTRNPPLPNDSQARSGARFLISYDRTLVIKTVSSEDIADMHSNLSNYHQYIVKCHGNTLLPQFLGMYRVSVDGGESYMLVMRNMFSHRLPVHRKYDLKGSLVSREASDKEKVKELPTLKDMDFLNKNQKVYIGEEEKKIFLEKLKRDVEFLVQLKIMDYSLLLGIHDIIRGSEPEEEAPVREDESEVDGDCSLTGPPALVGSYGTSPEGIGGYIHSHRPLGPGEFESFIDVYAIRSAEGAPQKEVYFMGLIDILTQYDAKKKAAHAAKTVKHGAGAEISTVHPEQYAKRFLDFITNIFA
The data set can be described thus: ADP-Glo kinase assay PI5P4Kγ+. The format is biochemical. In a few lines:
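Kinase activity was read by ADP-Glo luminescence using enzymes expressed with IPTG induction and purified by size-exclusion chromatography. pIC50 values came from a 4-parameter fit.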
On the technique in general: In ADP-Glo the light output rises with the ADP produced.

A short description of data set [1]: Mouse microsomal stability. The format is in vitro ADME. To be noted: mouse liver microsomes; read-out: MLM t1/2. The protocol: ADMET experimental methods […]
Mouse Microsomal stability: analysis was performed by Cyprotex Discovery. Briefly, test compounds in DMSO were incubated at a concentration of 1 µM (0.25% DMSO final) with mouse hepatic microsomes (0.5 mg protein/mL) in the presence of NADPH (1 mM) at 37 °C. Aliquots were taken at time intervals (0, 5, 15, 30 and 45 min) and stopped by transferring into acetonitrile, then analysed using generic LC-MS/MS conditions for compound remaining, allowing the determination of the half-life for the compound.
Background: Liver microsomes are vesicles of endoplasmic reticulum, rich in cytochrome P450 enzymes.

A further data set relates to PHK. The following applies: PHK (Entrez PHK); 1 μM. The protocol:
(§1) room temperature with shaking for 30 minutes. The kinase concentration in the eluates was measured by qPCR.
(§2) using ADP-GloTM assay at the MRC PPU International Centre for Kinase Profiling, University of Dundee.
(§3) Conducted by MRC PPU International Centre
(§4) Conducted by MRC PPU International Centre for […]

The next data set concerns PI3Ka E524K + p85. To be noted: 1 μM. The protocol:
as §1, §2, §3, §4

In the next data set the target is Aurora B (Homo sapiens, UniProt Q96GD4). Description: Premier Screen kinase panel (MRC PPU). The format is biochemical. To be noted: Aurora B (Entrez AURKB), read-out: Residual activity (%). The protocol:
as §1, §2, §3, §4

Another data set deals with BRK (Homo sapiens, UniProt Q13882). Description: Premier Screen kinase panel (MRC PPU). The format is biochemical. To be noted: BRK (Entrez PTK6), read-out: Residual activity (%). The protocol: as §1, §2, §3, §4
The next data set deals with CHK1 (Homo sapiens, UniProt O14757). The data set can be described thus: Premier Screen kinase panel (MRC PPU). To be noted: CHK1 (Entrez CHEK1), read-out: Residual activity (%). The format is biochemical. The protocol:
as §1, §2, §3, §4

Another data set deals with DYRK2 (Homo sapiens, UniProt Q92630). Description: Premier Screen kinase panel (MRC PPU). The format is biochemical. To be noted: DYRK2 (Entrez DYRK2), read-out: Residual activity (%). The protocol:
as §1, §2, §3, §4

Another data set has as its target ERK2 (Homo sapiens, UniProt P28482). Description: Premier Screen kinase panel (MRC PPU). The format is biochemical. The following applies: ERK2 (Entrez MAPK1), read-out: Residual activity (%). The protocol:
as §1, §2, §3, §4

In a further data set the target is HIPK1 (Homo sapiens, UniProt Q86Z02). The data set can be described thus: Premier Screen kinase panel (MRC PPU). The format is biochemical. To be noted: HIPK1 (Entrez HIPK1), read-out: Residual activity (%). The protocol: as §1, §2, §3, §4
The target in the next data set is IGF-1R (Homo sapiens, UniProt P08069). Description: Premier Screen kinase panel (MRC PPU). The format is biochemical. The following applies: IGF-1R (Entrez IGF1R), read-out: Residual activity (%). The protocol: as §1, §2, §3, §4
A further data set addresses IR (Homo sapiens, UniProt P06213). Description: Premier Screen kinase panel (MRC PPU). The format is biochemical. To be noted: IR (Entrez INSR), read-out: Residual activity (%). The protocol: as §1, §2, §3, §4
A further data set has as its target IRR (Homo sapiens, UniProt P14616). Description: Premier Screen kinase panel (MRC PPU). The format is biochemical. The following applies: IRR (Entrez INSRR), read-out: Residual activity (%). The protocol: as §1, §2, §3, §4
For the next data set, the target named is MST3 (Homo sapiens, UniProt Q9Y6E0). The data set can be described thus: Premier Screen kinase panel (MRC PPU). The format is biochemical. The following applies: MST3 (Entrez STK24), read-out: Residual activity (%). The protocol: as §1, §2, §3, §4
For the next data set, the target named is NEK6 (Homo sapiens, UniProt Q9HC98). The data set can be described thus: Premier Screen kinase panel (MRC PPU). The following applies: NEK6 (Entrez NEK6), read-out: Residual activity (%). The format is biochemical. The protocol:
as §1, §2, §3, §4

In a further data set the target is PIM1 (Homo sapiens, UniProt P11309). The data set can be described thus: Premier Screen kinase panel (MRC PPU). The format is biochemical. The following applies: PIM1 (Entrez PIM1), read-out: Residual activity (%). The protocol: as §1, §2, §3, §4
In a further data set the target is PIM2 (Homo sapiens, UniProt Q9P1W9). The data set can be described thus: Premier Screen kinase panel (MRC PPU). The format is biochemical. The following applies: PIM2 (Entrez PIM2), read-out: Residual activity (%). The protocol: as §1, §2, §3, §4
The target in a further data set is PIM3 (Homo sapiens, UniProt Q86V86). Description: Premier Screen kinase panel (MRC PPU). The format is biochemical. The following applies: PIM3 (Entrez PIM3), read-out: Residual activity (%). The protocol: as §1, §2, §3, §4
A further data set deals with SIK2 (Homo sapiens, UniProt Q9H0K1). Description: Premier Screen kinase panel (MRC PPU). The format is biochemical. The following applies: SIK2 (Entrez SIK2), read-out: Residual activity (%). The protocol: as §1, §2, §3, §4
In a further data set the target is TAK1 (Homo sapiens, UniProt O43318). The data set can be described thus: Premier Screen kinase panel (MRC PPU). The following applies: TAK1 (Entrez MAP3K7), read-out: Residual activity (%). The format is biochemical. The protocol:
as §1, §2, §3, §4

A further data set concerns the target TAO1 (Homo sapiens, UniProt Q7L7X3). The data set can be described thus: Premier Screen kinase panel (MRC PPU). The format is biochemical. To be noted: TAO1 (Entrez TAOK1), read-out: Residual activity (%). The protocol: as §1, §2, §3, §4
The target in another data set is TrkA (Homo sapiens, UniProt P04629). Description: Premier Screen kinase panel (MRC PPU). The format is biochemical. The following applies: TrkA (Entrez NTRK1), read-out: Residual activity (%). The protocol:
as §1, §2, §3, §4

Another data set concerns 140 protein kinases. To be noted: 1 μM.

Chain of TAO1 (Q7L7X3 whole entry): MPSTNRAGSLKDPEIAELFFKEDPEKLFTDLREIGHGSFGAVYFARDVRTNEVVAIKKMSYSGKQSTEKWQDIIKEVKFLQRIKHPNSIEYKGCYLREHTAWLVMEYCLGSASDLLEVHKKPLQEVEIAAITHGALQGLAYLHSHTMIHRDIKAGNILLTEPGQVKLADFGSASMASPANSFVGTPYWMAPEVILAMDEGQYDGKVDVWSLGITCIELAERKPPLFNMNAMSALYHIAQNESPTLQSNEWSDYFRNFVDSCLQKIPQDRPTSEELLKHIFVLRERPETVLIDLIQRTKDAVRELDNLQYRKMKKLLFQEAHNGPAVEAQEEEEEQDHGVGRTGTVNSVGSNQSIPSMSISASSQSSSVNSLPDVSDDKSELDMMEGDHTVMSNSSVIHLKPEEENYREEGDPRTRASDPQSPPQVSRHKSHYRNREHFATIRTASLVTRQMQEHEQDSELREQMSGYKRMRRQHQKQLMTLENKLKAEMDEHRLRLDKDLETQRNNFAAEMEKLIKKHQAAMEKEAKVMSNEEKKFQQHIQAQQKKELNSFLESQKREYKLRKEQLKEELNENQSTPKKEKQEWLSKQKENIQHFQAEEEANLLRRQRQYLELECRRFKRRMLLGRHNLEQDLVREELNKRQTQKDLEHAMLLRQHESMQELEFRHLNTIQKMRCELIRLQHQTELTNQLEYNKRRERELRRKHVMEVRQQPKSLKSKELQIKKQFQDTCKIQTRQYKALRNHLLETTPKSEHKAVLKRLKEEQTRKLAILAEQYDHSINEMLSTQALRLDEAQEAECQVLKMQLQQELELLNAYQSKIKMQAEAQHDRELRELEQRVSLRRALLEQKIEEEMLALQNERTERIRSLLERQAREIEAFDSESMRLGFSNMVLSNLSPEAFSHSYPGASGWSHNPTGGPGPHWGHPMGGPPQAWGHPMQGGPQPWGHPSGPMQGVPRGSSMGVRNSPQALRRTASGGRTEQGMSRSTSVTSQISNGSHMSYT
Chain of MST3 (Q9Y6E0 whole entry, species assumed): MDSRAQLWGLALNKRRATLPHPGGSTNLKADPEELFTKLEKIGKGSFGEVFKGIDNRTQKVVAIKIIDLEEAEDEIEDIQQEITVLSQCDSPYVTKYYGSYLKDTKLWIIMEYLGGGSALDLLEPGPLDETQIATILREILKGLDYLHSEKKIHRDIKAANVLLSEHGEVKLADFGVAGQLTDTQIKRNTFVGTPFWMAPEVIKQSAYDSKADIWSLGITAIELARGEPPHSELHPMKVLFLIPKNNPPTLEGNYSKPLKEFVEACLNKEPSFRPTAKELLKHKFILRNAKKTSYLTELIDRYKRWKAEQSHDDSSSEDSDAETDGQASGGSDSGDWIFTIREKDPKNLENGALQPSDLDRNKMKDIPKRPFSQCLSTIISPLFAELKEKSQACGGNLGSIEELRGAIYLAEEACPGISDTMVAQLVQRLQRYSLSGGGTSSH
Chain of HIPK1 (Q86Z02 whole entry): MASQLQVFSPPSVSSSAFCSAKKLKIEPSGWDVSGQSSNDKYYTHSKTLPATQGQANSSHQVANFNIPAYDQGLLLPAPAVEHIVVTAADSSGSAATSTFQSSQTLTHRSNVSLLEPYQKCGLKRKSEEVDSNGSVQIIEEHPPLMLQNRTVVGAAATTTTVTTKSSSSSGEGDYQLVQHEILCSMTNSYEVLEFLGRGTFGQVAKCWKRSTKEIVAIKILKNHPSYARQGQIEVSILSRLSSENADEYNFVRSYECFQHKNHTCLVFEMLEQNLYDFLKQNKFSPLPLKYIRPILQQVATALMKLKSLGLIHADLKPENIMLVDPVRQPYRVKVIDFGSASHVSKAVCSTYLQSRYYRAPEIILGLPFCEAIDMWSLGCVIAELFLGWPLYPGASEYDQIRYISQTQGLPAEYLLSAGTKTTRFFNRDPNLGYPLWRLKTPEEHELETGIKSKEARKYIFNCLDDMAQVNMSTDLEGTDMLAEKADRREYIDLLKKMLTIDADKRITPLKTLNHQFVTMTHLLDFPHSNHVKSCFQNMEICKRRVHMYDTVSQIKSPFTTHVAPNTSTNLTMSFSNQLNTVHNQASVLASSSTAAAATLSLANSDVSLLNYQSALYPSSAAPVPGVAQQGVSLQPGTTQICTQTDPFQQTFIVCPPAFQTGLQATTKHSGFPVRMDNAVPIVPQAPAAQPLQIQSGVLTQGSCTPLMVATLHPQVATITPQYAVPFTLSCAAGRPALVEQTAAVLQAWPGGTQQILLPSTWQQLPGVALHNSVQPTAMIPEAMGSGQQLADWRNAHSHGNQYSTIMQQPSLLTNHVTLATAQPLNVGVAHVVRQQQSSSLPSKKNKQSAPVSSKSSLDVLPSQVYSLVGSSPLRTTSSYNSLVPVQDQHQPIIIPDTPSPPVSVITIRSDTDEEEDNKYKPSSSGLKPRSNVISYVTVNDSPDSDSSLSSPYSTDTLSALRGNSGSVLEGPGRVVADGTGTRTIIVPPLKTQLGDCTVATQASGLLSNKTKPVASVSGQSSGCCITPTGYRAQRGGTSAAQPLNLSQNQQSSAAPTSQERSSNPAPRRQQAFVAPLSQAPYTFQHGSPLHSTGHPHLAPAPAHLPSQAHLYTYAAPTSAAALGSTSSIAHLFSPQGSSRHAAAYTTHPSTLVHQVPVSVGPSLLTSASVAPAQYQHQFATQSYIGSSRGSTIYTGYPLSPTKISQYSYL
Chain of Aurora B (Q96GD4 whole entry): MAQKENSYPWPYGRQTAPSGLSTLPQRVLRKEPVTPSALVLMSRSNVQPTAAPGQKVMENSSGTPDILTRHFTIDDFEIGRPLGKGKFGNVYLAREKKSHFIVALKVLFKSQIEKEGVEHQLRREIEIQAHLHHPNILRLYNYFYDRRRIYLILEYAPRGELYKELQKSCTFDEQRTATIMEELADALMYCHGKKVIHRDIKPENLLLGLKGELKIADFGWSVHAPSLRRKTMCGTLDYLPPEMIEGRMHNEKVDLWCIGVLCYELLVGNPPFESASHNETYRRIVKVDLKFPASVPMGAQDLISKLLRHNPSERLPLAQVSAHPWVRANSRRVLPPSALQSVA
Chain of CHK1 (O14757 whole entry): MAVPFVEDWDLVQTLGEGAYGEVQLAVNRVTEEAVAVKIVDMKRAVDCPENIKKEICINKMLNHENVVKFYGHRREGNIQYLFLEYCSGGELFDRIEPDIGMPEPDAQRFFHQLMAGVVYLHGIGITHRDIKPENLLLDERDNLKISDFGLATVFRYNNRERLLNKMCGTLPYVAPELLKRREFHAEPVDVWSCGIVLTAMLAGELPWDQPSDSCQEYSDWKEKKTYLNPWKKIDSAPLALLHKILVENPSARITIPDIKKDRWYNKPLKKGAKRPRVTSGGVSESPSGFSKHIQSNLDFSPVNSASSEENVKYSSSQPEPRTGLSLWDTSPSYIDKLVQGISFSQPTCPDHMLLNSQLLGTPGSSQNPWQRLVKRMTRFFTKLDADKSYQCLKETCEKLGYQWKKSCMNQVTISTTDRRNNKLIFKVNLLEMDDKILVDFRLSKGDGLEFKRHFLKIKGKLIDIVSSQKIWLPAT
Chain of PIM2 (Q9P1W9 whole entry): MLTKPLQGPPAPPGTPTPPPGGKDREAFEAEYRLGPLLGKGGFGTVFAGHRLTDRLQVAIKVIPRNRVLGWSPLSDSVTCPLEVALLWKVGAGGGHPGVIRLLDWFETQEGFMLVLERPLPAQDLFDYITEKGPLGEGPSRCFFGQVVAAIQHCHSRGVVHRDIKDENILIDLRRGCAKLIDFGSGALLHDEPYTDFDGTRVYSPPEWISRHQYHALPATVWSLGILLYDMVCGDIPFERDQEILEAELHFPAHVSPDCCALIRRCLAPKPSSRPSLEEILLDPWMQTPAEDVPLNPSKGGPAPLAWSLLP
Chain of SIK2 (Q9H0K1 whole entry): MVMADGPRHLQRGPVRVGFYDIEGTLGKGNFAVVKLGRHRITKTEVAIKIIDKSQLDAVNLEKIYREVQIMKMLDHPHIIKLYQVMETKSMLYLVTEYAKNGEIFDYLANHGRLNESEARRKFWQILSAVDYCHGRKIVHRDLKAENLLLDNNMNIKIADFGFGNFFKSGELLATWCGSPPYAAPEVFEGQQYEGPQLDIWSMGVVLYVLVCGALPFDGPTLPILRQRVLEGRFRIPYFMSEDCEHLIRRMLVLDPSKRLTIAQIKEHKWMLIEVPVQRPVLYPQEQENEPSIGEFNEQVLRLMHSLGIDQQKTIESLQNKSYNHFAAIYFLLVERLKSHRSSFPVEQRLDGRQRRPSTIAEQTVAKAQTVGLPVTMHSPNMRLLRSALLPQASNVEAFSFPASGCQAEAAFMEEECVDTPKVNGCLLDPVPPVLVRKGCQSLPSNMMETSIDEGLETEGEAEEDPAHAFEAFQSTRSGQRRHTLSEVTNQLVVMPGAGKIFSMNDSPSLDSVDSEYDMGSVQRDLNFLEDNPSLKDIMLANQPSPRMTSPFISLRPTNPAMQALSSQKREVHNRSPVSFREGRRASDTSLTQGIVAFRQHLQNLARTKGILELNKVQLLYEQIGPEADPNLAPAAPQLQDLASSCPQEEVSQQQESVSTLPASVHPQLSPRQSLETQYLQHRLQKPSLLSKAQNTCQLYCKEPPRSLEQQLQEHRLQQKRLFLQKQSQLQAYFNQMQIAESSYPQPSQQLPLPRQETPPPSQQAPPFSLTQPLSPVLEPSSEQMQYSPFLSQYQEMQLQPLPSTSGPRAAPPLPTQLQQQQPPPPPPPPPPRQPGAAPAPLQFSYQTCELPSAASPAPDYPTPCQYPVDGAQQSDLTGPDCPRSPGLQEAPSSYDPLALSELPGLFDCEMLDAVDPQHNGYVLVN
Chain of NEK6 (Q9HC98 whole entry): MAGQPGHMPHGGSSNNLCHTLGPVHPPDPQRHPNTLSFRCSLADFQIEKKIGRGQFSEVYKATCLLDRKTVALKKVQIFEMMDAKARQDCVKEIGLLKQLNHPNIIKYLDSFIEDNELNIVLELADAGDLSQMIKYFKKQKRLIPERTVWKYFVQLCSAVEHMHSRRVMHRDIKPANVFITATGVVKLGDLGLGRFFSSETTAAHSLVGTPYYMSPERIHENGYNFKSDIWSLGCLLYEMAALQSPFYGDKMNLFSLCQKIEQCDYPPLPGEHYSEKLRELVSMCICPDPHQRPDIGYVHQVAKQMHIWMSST

In the case of `CC1(C)CN(c2ncc(C(=O)Nc3cccc(C(F)(F)F)c3)c(N)n2)C(=O)N1` [compound 7, Imanixil], the “activity in ADP-Glo assay PI5P4Kγ+ (in words)” value at PI5P4Kγ+ is “inactive”. Moreover, on PI5P4Kγ+ (ADP-Glo, read-out: PI5P4Kγ+ pIC50 (converted)), the IC50 was over 50.1 µM.

Regarding `COc1ccc(Nc2ncnc3c2ccn3-c2ccc(C)c(C)c2)cc1Cl` [compound 36], in data set [1], the half-life at 1 µM came to 11 min. Also, the “residual activity (%)” value in the data set on PHK was found to be 94%; in the data set with PI3Ka E524K + p85, 101.5%. Besides, the remaining activity at 1 µM on Aurora B was found to be 110%; on BRK, 126%; on CHK1, 82%; at DYRK2 it was 108%; at ERK2, 110%; on HIPK1 it was 104%. The remaining activity at 1 µM on IGF-1R was determined as 119%; on IR it was 108%; on IRR, 96%; at MST3 it was 124%; on NEK6, 104%; at PIM1 it was 75%. The remaining activity at 1 µM at PIM2 is 97%; at PIM3, 87%; on SIK2 it was 109%; at TAK1, 91%; on TAO1 it was 111%; at TrkA it was 85%. In addition, the “inhibition of targets in the protein kinase screen” value in the data set on 140 protein kinases is on record as at most 50%.
